Reference: paper PMC7206119, “RIP1 inhibition blocks inflammatory diseases but not tumor growth or metastases” (Cell Death and Differentiation, 2019)

Tests used:
Test in all cases: biochemical
Set-up in all cases: DiscoverX kinase panel, active-site competition binding (KINOMEscan type), percent of control at one concentration
Settings in all cases: competition binding, percent of control
CSNK1G3 = CSNK1G3 (Homo sapiens, UniProt Q9Y6M4)
STK39 = STK39 (Homo sapiens, UniProt Q9UEW8)
FES = FES (Homo sapiens, UniProt P07332)
DMPK2 = molecular target: T1, DMPK2 (Homo sapiens, UniProt Q6DT37)
T1 construct: gene CDC42BPG
T1 sequence (Q6DT37 whole entry): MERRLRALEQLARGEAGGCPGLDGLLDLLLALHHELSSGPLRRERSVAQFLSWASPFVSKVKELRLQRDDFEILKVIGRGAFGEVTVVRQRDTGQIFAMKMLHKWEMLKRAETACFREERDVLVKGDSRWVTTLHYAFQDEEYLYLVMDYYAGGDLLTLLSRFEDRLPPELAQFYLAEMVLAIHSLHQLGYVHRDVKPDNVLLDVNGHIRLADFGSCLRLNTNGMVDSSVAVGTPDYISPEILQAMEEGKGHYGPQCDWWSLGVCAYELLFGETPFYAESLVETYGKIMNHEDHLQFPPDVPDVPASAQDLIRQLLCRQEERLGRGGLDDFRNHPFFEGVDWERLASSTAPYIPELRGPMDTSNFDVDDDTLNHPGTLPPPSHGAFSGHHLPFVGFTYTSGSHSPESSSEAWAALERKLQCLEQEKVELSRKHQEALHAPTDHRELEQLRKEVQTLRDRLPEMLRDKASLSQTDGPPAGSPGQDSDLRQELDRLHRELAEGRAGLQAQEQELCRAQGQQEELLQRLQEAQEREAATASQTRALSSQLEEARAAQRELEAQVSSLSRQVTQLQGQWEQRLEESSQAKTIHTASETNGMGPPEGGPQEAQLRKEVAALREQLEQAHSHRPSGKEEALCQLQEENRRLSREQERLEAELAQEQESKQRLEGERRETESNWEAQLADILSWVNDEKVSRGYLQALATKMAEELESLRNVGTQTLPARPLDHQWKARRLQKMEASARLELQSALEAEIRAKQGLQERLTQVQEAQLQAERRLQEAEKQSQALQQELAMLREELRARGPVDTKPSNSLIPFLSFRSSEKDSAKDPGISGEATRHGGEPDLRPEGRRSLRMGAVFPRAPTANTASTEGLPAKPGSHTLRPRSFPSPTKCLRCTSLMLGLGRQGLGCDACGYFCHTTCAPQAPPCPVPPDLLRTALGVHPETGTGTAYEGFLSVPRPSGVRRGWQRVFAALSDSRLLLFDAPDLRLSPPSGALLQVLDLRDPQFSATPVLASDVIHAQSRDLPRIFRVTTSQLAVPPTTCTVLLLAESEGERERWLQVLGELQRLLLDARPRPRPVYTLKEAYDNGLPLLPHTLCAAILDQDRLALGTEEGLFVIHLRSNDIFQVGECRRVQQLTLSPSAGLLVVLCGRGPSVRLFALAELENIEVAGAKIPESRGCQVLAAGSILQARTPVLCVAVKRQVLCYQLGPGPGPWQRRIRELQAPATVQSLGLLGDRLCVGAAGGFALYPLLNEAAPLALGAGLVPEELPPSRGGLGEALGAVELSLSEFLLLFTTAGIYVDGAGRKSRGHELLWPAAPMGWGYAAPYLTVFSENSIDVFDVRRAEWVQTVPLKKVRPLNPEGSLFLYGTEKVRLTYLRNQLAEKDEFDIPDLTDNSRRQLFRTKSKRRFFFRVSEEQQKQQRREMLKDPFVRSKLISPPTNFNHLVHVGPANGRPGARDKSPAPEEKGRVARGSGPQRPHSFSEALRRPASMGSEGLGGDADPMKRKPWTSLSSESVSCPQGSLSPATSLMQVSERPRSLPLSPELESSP

BLK = BLK (Homo sapiens, UniProt P51451)
WNK1 = WNK1 (Homo sapiens, UniProt Q9H4A3)
WNK1, sequence (Q9H4A3 whole entry): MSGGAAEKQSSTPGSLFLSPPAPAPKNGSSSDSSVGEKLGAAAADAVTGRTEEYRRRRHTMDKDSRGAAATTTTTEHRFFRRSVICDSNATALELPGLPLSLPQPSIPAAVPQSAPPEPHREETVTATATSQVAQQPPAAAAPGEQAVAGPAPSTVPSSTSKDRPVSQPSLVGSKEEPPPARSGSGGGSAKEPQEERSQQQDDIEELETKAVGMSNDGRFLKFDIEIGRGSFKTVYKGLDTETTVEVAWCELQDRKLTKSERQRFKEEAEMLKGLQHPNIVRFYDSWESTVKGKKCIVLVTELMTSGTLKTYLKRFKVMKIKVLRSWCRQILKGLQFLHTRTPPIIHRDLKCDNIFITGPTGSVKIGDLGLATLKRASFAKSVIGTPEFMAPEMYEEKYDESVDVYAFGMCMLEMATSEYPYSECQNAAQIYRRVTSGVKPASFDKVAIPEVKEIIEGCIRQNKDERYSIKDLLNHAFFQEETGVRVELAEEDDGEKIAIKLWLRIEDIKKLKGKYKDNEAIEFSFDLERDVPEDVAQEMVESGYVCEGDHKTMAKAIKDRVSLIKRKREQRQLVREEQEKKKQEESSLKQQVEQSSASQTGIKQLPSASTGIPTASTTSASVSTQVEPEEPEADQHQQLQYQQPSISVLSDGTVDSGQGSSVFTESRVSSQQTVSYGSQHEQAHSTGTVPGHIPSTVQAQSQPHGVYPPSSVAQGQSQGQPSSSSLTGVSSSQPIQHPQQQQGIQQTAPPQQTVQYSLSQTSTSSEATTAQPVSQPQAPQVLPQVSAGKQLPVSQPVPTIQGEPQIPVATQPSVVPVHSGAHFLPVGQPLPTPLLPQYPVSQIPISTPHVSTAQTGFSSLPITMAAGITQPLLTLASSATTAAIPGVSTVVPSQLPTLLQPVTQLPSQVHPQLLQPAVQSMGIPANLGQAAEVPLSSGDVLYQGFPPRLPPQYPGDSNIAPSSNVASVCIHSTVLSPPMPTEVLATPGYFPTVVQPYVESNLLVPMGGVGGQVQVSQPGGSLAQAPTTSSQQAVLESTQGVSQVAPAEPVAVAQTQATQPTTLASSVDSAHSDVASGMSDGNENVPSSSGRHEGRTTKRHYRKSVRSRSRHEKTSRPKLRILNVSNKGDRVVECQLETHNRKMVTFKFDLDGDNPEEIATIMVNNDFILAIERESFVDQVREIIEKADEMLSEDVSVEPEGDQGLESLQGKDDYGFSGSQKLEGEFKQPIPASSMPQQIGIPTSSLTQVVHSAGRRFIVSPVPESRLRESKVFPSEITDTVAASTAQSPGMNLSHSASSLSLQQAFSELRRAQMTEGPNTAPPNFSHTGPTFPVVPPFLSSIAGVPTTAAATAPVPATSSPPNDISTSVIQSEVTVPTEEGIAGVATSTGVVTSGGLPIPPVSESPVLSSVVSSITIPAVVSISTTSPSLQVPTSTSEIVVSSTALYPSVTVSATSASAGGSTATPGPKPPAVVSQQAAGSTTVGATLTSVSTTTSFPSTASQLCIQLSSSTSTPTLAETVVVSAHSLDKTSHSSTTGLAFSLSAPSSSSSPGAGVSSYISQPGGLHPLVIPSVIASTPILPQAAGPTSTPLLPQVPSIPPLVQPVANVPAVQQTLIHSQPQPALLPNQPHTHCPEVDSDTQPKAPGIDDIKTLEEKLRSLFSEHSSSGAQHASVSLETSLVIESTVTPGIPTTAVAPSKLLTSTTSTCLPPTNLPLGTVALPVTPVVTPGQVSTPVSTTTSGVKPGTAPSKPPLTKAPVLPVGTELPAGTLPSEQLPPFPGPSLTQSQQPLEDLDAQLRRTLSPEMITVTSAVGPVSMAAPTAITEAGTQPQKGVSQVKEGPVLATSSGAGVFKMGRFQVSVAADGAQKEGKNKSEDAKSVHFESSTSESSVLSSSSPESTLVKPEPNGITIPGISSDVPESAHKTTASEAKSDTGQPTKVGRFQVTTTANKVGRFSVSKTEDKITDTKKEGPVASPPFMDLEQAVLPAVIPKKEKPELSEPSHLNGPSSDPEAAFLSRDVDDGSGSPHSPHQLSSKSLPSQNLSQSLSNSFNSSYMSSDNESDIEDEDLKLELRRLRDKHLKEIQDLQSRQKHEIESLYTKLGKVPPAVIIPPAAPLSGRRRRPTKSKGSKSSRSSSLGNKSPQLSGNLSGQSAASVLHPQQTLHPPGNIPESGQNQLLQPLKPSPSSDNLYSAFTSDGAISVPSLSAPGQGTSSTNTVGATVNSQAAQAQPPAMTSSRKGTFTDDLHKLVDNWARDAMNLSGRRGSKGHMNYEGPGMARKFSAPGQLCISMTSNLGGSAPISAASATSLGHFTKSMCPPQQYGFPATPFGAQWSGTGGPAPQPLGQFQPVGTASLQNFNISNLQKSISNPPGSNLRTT

NDR1 = molecular target: T2, NDR1 (Homo sapiens, UniProt Q15208)
T2 construct: gene STK38

RIOK3 = RIOK3 (Homo sapiens, UniProt O14730)
PIK3CA(E545A) = PIK3CA(E545A) (Homo sapiens, UniProt P42336, E545A)
TIE2 = molecular target: T3, TIE2 (Homo sapiens, UniProt Q02763)
T3 construct: gene TEK

EGFR(L747-T751del,Sins) = EGFR(L747-T751del,Sins) (Homo sapiens, UniProt P00533, DEL747-750/T751S)
IKK-alpha = molecular target: T4, IKK-alpha (Homo sapiens, UniProt O15111)
T4 construct: gene CHUK
T4 sequence (O15111 whole entry): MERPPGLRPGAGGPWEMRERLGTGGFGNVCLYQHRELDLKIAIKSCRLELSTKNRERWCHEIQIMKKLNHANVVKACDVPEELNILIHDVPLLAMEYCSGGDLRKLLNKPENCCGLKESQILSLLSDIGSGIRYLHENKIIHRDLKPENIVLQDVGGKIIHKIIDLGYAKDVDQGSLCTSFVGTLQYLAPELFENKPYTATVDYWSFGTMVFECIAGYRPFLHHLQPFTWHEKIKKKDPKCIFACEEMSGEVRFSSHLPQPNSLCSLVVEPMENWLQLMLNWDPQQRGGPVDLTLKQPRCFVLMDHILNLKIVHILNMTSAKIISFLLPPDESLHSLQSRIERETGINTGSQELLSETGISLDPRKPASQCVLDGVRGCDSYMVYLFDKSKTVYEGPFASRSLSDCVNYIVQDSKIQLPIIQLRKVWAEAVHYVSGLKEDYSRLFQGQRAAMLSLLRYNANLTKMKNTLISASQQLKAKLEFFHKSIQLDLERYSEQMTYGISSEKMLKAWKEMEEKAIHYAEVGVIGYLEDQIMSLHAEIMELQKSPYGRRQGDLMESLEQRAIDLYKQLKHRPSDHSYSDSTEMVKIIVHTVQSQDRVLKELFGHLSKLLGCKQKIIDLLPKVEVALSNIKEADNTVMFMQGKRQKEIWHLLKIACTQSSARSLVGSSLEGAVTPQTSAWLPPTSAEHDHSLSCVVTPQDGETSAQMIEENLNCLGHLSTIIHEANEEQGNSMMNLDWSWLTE

ERK5 = molecular target: T5, ERK5 (Homo sapiens, UniProt Q13164)
T5 construct: gene MAPK7

ABL2 = ABL2 (Homo sapiens, UniProt P42684)
PIP5K2C = molecular target: T6, PIP5K2C (Homo sapiens, UniProt Q8TBX8)
T6 construct: gene PIP4K2C

p38-gamma = molecular target: T7, p38-gamma (Homo sapiens, UniProt P53778)
T7 construct: gene MAPK12

SRMS = SRMS (Homo sapiens, UniProt Q9H3Y6)
AMPK-alpha1 = molecular target: T8, AMPK-alpha1 (Homo sapiens, UniProt Q13131)
T8 construct: gene PRKAA1

[1] = molecular target: T9, RPS6KA4(Kin.Dom.2-C-terminal) (Homo sapiens, UniProt O75676)
T9 construct: Kin.Dom.2-C-terminal

HIPK1 = HIPK1 (Homo sapiens, UniProt Q86Z02)
SIK = molecular target: T10, SIK (Homo sapiens, UniProt P57059)
T10 construct: gene SIK1

CSNK1G3, sequence (Q9Y6M4 whole entry): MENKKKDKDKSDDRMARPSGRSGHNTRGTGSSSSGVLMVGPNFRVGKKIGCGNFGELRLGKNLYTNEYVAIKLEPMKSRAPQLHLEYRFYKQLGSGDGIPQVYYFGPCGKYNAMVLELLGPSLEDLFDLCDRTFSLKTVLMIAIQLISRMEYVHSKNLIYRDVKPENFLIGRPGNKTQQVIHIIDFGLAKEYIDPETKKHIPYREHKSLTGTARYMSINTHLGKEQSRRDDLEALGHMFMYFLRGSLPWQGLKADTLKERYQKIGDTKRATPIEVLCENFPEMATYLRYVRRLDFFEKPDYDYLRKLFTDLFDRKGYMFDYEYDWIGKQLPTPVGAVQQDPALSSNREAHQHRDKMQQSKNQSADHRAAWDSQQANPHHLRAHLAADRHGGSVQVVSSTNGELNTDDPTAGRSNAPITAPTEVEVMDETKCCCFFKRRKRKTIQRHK

Compound: COc1cc2c(cn1)N(C)C(=O)[C@@H](NC(=O)c1nc3n(n1)[C@H](c1ccccc1)CC3)CC2 [GNE684, (S)-N-((S)-7-methoxy-1-methyl-2-oxo-2,3,4,5-tetrahydro-1H-pyrido[3,4-b]azepin-3-yl)-5-phenyl-6,7-dihydro-5H-pyrrolo[1,2-b][1,2,4]triazole-2-carboxamide]
- remaining binding at 10 µM (CSNK1G3): 95%
- remaining binding at 10 µM (STK39): 97%
- remaining binding at 10 µM (FES): 100%
- remaining binding at 10 µM (DMPK2): 100%
- remaining binding at 10 µM (BLK): 49%
- remaining binding at 10 µM (WNK1): 100%
- remaining binding at 10 µM (NDR1): 79%
- remaining binding at 10 µM (RIOK3): 100%
- remaining binding at 10 µM (PIK3CA(E545A)): 100%
- remaining binding at 10 µM (TIE2): 92%
- remaining binding at 10 µM (EGFR(L747-T751del,Sins)): 84%
- remaining binding at 10 µM (IKK-alpha): 100%
- remaining binding at 10 µM (ERK5): 85%
- remaining binding at 10 µM (ABL2): 100%
- remaining binding at 10 µM (PIP5K2C): 76%
- remaining binding at 10 µM (p38-gamma): 98%
- remaining binding at 10 µM (SRMS): 100%
- remaining binding at 10 µM (AMPK-alpha1): 97%
- remaining binding at 10 µM [1]: 100%
- remaining binding at 10 µM (HIPK1): 82%
- remaining binding at 10 µM (SIK): 100%
